In patent publication US20120118197A1, “BUILDING MATERIALS RESISTANT TO ROOT PENETRATION AND METHODS FOR MAKING THE SAME” (LANXESS DEUTSCHLAND GMBH, priority 2008, published 2012):

Tested on: Lupinus albus
Assay: Greenhouse root penetration test in bitumen membranes (DIN CEN/TS 14416)
Details: for No. of emerged plants average: 35 seeds planted; for No. of roots grew into bitumen average / No. of roots stopped at bitumen average / Plant height average: six weeks; for No. of roots grew thoughout bitumen average: average of 3 replicates
Protocol: A greenhouse study was carried out to compare the effectiveness of different herbicides to prevent root penetration in bitumen roof sealing membranes without killing the plant or adversely affecting it.
The herbicides were incorporated into bitumen 160/220 (thickness 4.5-6 mm) during a standard bitumen manufacturing process. The manufacturing process comprised a step of heating the bitumen mixture before a fibreglass grid was incorporated as a reinforcement of the bitumen membrane.
The herbicides Napropamide (N,N-Diethyl-2-(1-naphthyloxy)propanamide, CAS No. (S)-(+) isomer: 41643-36-1) and Prodiamine (2,4-dinitro-N3,N3-dipropyl-6-(trifluoromethyl)-1,3-benzenediamine, CAS No. 29091-21-2) were formulated as oil dispersion with 25% active ingredient. The (R)-2-(4-chlorine-o-tolyloxy)propionic acid ethyl-hexylester (trader name: ‘HERBITECT™’, 2 ethylhexyl-2-(R)-2-(4-chloro-o-tolylory)propionate) may be obtained from Büsscher & Hoffman, Fabrikstrasse 2, A-4470 Enns, Austria and was formulated as oil dispersion with approx. 95% active ingredient.
Resistance of the bitumen against root penetration was evaluated according to the standard test method known in the art as: DIN CEN/TS 14416 ‘Geosynthetische Dichtungsbahnen—Prüfverfahren zur Bestimmung des Widerstandes gegen Wurzeln, Deutsche Fassung CEN/TS14416:2005’. Bitumen membranes containing Napropamide and Prodiamine, respectively were evaluated at active ingredient concentrations of 0.5%, 0.25%, 0.125% and 0.0625% based on raw bitumen. […] Bitumen membranes without incorporated herbicide were used as a control. Three discs with a diameter of 25 cm were punched out of each bitumen membrane and used for the study.
Unglazed, earthenware flowerpots approx. 22 cm high were filled with a soil-mixture [soil low in calcium/TKS1 (3:1)] to 10 cm from the bottom of the pot. Bitumen discs were put on top of the soil layer and the gap between the disc and the pot was sealed with aquarium silicone sealant. The diameter of the discs was approximately that of the internal diameter halfway up the pots. The bitumen discs were covered with approximately 9 cm soil and a plastic watering pipe was insert into the soil of each pot. Thirty five lupine seeds (Lupinus albus) were planted in the soil and covered with about 1 cm of soil. Two pots filled only with soil were used as a control for seed germination and plant growth.
The seeds were growing in a greenhouse under artificial light (14 h photoperiod, 20-22° C., relative humidity 60%). The soil above the bitumen disc was watered with rain water led through the plastic pipe into the pots so that the surface of the bitumen was kept damp. The soil beneath the bitumen discs was kept moist by standing from time to time the pots in water-filled trays. After six weeks the soil of the pots was removed from the roots by gentle running water. The bottom side of bitumen membranes was inspected to see whether any roots have grown through the bitumen, and the upper side was examined to assess the number of roots penetrating the bitumen and the depth of penetration. During the assessments, bitumen discs, roots, and above ground parts of the plants were recorded.

[1] = 0.38% active ingredient based on raw bitumen
[2] = 0.0625% active ingredient based on raw bitumen
[3] = 0.0625% active ingredient, replicate 1
[4] = 0.0625% active ingredient, replicate 2
[5] = 0.0625% active ingredient, replicate 3
[6] = 0.125% active ingredient based on raw bitumen
[7] = 0.125% active ingredient, replicate 1
[8] = 0.125% active ingredient, replicate 2
[9] = 0.125% active ingredient, replicate 3
[10] = 0.25% active ingredient based on raw bitumen
[11] = 0.25% active ingredient, replicate 1
[12] = 0.25% active ingredient, replicate 2
[13] = 0.25% active ingredient, replicate 3
[14] = 0.5% active ingredient based on raw bitumen
[15] = 0.5% active ingredient, replicate 1
[16] = 0.5% active ingredient, replicate 2
[17] = 0.5% active ingredient, replicate 3

Structure (SMILES)	No. of roots grew into bitumen average [2]	No. of roots stopped at bitumen average [2]	No. of roots grew thoughout bitumen average (0.0625% active ingredient)	No. of roots grew thoughout bitumen (3 replicates shown) [3]	No. of roots grew thoughout bitumen (3 replicates shown) [4]	No. of roots grew thoughout bitumen (3 replicates shown) [5]	No. of roots grew into bitumen average [6]	No. of roots stopped at bitumen average [6]	No. of roots grew thoughout bitumen average (0.125% active ingredient)	No. of roots grew thoughout bitumen (3 replicates shown) [7]	No. of roots grew thoughout bitumen (3 replicates shown) [8]	No. of roots grew thoughout bitumen (3 replicates shown) [9]	No. of roots grew into bitumen average [10]	No. of roots stopped at bitumen average [10]	No. of roots grew thoughout bitumen average (0.25% active ingredient)	No. of roots grew thoughout bitumen (3 replicates shown) [11]	No. of roots grew thoughout bitumen (3 replicates shown) [12]	No. of roots grew thoughout bitumen (3 replicates shown) [13]	No. of roots grew into bitumen average [14]	No. of roots stopped at bitumen average [14]	other results
CCCCC(CC)COC(=O)[C@@H](C)Oc1ccc(Cl)cc1C (stereo partly drawn) [Herbitect, (R)-2-(4-chlorine-o-tolyloxy)propionic acid ethyl-hexylester]																					No. of emerged plants average [1]: 33.0; No. of roots grew into bitumen average [1]: 46.7; No. of roots stopped at bitumen average [1]: approx. >50; Plant height average [1]: 34.0 cm; No. of roots grew thoughout bitumen average (0.38% active ingredient): 0; No. of roots grew thoughout bitumen (3 replicates shown) (0.38% active ingredient, replicate 1): 0; No. of roots grew thoughout bitumen (3 replicates shown) (0.38% active ingredient, replicate 2): 0; No. of roots grew thoughout bitumen (3 replicates shown) (0.38% active ingredient, replicate 3): 0; Penetration of upper side of bitumen compared to the untreated bitumen (at 0.38%): penetrated to less extent; Root penetration throughout bitumen (standard product, 0.38%): without any root penetration
CCCN(CCC)c1c([N+](=O)[O-])cc(C(F)(F)F)c(N)c1[N+](=O)[O-] [Prodiamine, 2,4-dinitro-N3,N3-dipropyl-6-(trifluoromethyl)-1,3-benzenediamine]	approx. >50	approx. >50	20.3	27	16	18	approx. >50	approx. >50	12.0	12	18	6	approx. >50	approx. >50	6.7	9	6	5	approx. >50	approx. >50	No. of emerged plants average [2]: 33.7; Plant height average [2]: 33.7 cm; No. of emerged plants average [6]: 34.7; Plant height average [6]: 32.3 cm; No. of emerged plants average [10]: 34.3; Plant height average [10]: 31.0 cm; No. of emerged plants average [14]: 34.3; Plant height average [14]: 34.0 cm; No. of roots grew thoughout bitumen average (0.5% active ingredient): 2.7; No. of roots grew thoughout bitumen (3 replicates shown) [15]: 1; No. of roots grew thoughout bitumen (3 replicates shown) [16]: 3; No. of roots grew thoughout bitumen (3 replicates shown) [17]: 4; Effectiveness to restrict root growth throughout bitumen (compared to Napropamide and the standard product HERBITECT): slightly less effective
CCN(CC)C(=O)C(C)Oc1cccc2ccccc12 (centres unmarked) [Napropamide, N,N-Diethyl-2-(1-naphthyloxy)propanamide]	approx. >50	approx. >50	1.3	1	1	2	approx. >50	approx. >50	0.7	0	2	0	40.0	approx. >50	0.3	0	0	1	30.3	approx. >50	No. of roots grew thoughout bitumen average (0.5% active ingredient): 0.3; No. of roots grew thoughout bitumen (3 replicates shown) [15]: 1; No. of roots grew thoughout bitumen (3 replicates shown) [16]: 0; No. of roots grew thoughout bitumen (3 replicates shown) [17]: 0; Penetration of upper side of bitumen compared to the untreated bitumen (at 0.5% and 0.25%, respectively): penetrated to less extent; Root elongation through bitumen (at 0.5% and 0.25%, exception in a replicate showing one root penetration): stopped completely; Harm to the remaining plant parts (in vivo): not harmful; Effectiveness to prevent root penetration of bitumen membranes (overall conclusion of the study): highly effective
